Source: article PMC4577729, “7-(Pyrazol-4-yl)-3H-imidazo[4,5-b]pyridine-based derivatives for kinase inhibition: Co-crystallisation studies with Aurora-A reveal distinct differences in the orientation of the pyrazole N1-substituent” (Bioorganic & Medicinal Chemistry Letters, 2015)

What was measured:
Assay in all cases: Kinase selectivity profiling
Type in all cases: biochemical
TBK1 = TBK1 (Homo sapiens, UniProt Q9UHD2); details: 1 µM, assay duplicates
Experimental: (§1) [20] Kinase selectivity profiling for compounds 7a, 7d, 14d and 14g was carried out at the International Centre for Protein Kinase Profiling, Division of Signal Transduction Therapy, University of Dundee.
(§2) Table S1: Kinase selectivity profiling of compounds 7a and 7d in a 102-kinase panel screened at a concentration of 1 µM.
(§3) Table S2: Kinase selectivity profiling of compounds 14d and 14g in a 105-kinase panel screened at a concentration of 1 µM.

ERK1 = ERK1 (Homo sapiens, UniProt P27361); details: 1 µM, assay duplicates
Experimental: as §1, §2, §3

HIPK2 = HIPK2 (Homo sapiens, UniProt Q9H2X6); details: 1 µM, assay duplicates
Experimental: as §1, §2, §3

BRSK2 = BRSK2 (Homo sapiens, UniProt Q8IWQ3); details: 1 µM, assay duplicates
Experimental: as §1, §2, §3

CAMKKb = CAMKKb (Homo sapiens, UniProt Q96RR4); details: 1 µM, assay duplicates
Experimental: as §1, §2, §3

CDK2-Cyclin A = CDK2-Cyclin A (Homo sapiens, UniProt P24941); details: 1 µM, assay duplicates
Experimental: as §1, §2, §3

CAMK1 = CAMK1 (Homo sapiens, UniProt Q14012); details: 1 µM, assay duplicates
Experimental: as §1, §2, §3

BTK = BTK (Homo sapiens, UniProt Q06187); details: 1 µM, assay duplicates
Experimental: as §1, §2, §3

CK1 = CK1 (Homo sapiens, UniProt P48730); details: 1 µM, assay duplicates
Experimental: as §1, §2, §3

MAPKAP-K2 = MAPKAP-K2 (Homo sapiens, UniProt P49137); details: 1 µM, assay duplicates
Experimental: as §1, §2, §3

ERK8 = biological target: T1, ERK8 (Homo sapiens, UniProt Q8TD08); details: for ERK8 inhibition: 1 μM; for ERK8 % activity remaining: 1 µM, assay duplicates
T1 sequence (Q8TD08 1-544): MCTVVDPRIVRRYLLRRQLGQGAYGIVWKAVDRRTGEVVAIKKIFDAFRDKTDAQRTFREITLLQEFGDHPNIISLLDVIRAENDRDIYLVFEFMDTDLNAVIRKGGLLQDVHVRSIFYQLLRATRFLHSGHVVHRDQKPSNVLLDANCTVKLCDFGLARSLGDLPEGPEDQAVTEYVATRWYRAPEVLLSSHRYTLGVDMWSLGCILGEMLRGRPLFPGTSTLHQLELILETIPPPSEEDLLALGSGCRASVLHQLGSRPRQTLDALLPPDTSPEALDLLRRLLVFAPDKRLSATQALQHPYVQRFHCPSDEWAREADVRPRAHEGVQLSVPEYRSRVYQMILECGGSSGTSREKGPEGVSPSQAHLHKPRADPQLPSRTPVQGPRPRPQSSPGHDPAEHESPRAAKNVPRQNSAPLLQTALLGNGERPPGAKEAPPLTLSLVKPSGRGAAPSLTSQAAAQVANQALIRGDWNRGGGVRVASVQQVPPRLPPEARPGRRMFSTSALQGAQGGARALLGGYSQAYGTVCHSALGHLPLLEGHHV
Experimental: as §1, §2, §3

CHK2 = CHK2 (Homo sapiens, UniProt O96017); details: 1 µM, assay duplicates
Experimental: as §1, §2, §3

PKCz = PKCz (Homo sapiens, UniProt Q05513); details: 1 µM, assay duplicates
Experimental: as §1, §2, §3

GSK3b = GSK3b (Homo sapiens, UniProt P49841); details: for GSK3b % activity remaining: 1 µM, assay duplicates
Experimental: as §1, §2, §3

JNK3 = JNK3 (Homo sapiens, UniProt P53779); details: 1 µM, assay duplicates
Experimental: as §1, §2, §3

HER4 = HER4 (Homo sapiens, UniProt Q15303); details: 1 µM, assay duplicates
Experimental: as §1, §2, §3

MNK1 = MNK1 (Homo sapiens, UniProt Q9BUB5); details: 1 µM, assay duplicates
Experimental: as §1, §2, §3

PRK2 = PRK2 (Homo sapiens, UniProt Q16513); details: 1 µM, assay duplicates
Experimental: as §1, §2, §3

MKK1 = MKK1 (Homo sapiens, UniProt Q02750); details: 1 µM, assay duplicates
Experimental: as §1, §2, §3

NEK6 = NEK6 (Homo sapiens, UniProt Q9HC98); details: 1 µM, assay duplicates
Experimental: as §1, §2, §3

IKKe = IKKe (Homo sapiens, UniProt Q14164); details: 1 µM, assay duplicates
Experimental: as §1, §2, §3

MST4 = MST4 (Homo sapiens, UniProt Q9P289); details: 1 µM, assay duplicates
Experimental: as §1, §2, §3

MEKK1 = MEKK1 (Homo sapiens, UniProt Q13233); details: 1 µM, assay duplicates
Experimental: as §1, §2, §3

SYK = SYK (Homo sapiens, UniProt P43405); details: 1 µM, assay duplicates
Experimental: as §1, §2, §3

PIM3 = PIM3 (Homo sapiens, UniProt Q86V86); details: 1 µM, assay duplicates
Experimental: as §1, §2, §3

p38b MAPK = p38b MAPK (Homo sapiens, UniProt Q15759); details: 1 µM, assay duplicates
Experimental: as §1, §2, §3

PIM2 = PIM2 (Homo sapiens, UniProt Q9P1W9); details: 1 µM, assay duplicates
Experimental: as §1, §2, §3

SGK1 = SGK1 (Homo sapiens, UniProt O00141); details: 1 µM, assay duplicates
Experimental: as §1, §2, §3

Src = Src (Homo sapiens, UniProt P12931); details: 1 µM, assay duplicates
Experimental: as §1, §2, §3

JNK1 = JNK1 (Homo sapiens, UniProt P45983); details: 1 µM, assay duplicates
Experimental: as §1, §2, §3

Chain of GSK3b (P49841 whole entry): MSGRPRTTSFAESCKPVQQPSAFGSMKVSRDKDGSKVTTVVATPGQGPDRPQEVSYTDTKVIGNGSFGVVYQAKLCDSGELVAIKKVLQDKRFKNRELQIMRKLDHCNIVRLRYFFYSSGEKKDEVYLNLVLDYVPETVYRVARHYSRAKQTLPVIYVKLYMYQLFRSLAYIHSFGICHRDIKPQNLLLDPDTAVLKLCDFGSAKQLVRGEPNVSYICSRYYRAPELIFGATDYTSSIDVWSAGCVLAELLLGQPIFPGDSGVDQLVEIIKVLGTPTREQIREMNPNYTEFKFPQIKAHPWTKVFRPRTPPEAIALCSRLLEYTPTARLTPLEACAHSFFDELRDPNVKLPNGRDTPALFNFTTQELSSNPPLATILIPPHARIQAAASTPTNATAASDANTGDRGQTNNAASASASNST
Chain of MAPKAP-K2 (P49137 whole entry): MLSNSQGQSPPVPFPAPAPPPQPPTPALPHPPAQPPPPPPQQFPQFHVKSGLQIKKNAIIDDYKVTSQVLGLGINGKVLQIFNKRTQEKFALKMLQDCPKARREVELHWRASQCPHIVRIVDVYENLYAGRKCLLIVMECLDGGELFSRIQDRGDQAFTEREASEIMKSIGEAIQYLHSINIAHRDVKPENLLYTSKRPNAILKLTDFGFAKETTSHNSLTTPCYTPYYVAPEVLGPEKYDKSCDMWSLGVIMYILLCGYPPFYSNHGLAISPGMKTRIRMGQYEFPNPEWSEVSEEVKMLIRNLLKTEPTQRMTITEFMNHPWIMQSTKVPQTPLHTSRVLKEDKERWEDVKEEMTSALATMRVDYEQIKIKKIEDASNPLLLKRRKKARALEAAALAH
Chain of MST4 (Q9P289 whole entry): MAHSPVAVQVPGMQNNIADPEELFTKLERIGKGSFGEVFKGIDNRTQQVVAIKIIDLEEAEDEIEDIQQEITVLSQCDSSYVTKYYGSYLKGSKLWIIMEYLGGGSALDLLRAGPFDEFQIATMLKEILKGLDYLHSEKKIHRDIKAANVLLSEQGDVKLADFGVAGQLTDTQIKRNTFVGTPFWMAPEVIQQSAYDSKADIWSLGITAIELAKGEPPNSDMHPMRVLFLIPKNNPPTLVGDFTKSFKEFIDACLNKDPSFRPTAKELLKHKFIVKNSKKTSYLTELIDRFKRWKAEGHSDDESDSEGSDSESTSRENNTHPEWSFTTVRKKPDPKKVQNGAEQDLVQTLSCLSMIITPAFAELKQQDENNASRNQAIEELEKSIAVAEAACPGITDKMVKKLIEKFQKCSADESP
Chain of MEKK1 (Q13233 whole entry): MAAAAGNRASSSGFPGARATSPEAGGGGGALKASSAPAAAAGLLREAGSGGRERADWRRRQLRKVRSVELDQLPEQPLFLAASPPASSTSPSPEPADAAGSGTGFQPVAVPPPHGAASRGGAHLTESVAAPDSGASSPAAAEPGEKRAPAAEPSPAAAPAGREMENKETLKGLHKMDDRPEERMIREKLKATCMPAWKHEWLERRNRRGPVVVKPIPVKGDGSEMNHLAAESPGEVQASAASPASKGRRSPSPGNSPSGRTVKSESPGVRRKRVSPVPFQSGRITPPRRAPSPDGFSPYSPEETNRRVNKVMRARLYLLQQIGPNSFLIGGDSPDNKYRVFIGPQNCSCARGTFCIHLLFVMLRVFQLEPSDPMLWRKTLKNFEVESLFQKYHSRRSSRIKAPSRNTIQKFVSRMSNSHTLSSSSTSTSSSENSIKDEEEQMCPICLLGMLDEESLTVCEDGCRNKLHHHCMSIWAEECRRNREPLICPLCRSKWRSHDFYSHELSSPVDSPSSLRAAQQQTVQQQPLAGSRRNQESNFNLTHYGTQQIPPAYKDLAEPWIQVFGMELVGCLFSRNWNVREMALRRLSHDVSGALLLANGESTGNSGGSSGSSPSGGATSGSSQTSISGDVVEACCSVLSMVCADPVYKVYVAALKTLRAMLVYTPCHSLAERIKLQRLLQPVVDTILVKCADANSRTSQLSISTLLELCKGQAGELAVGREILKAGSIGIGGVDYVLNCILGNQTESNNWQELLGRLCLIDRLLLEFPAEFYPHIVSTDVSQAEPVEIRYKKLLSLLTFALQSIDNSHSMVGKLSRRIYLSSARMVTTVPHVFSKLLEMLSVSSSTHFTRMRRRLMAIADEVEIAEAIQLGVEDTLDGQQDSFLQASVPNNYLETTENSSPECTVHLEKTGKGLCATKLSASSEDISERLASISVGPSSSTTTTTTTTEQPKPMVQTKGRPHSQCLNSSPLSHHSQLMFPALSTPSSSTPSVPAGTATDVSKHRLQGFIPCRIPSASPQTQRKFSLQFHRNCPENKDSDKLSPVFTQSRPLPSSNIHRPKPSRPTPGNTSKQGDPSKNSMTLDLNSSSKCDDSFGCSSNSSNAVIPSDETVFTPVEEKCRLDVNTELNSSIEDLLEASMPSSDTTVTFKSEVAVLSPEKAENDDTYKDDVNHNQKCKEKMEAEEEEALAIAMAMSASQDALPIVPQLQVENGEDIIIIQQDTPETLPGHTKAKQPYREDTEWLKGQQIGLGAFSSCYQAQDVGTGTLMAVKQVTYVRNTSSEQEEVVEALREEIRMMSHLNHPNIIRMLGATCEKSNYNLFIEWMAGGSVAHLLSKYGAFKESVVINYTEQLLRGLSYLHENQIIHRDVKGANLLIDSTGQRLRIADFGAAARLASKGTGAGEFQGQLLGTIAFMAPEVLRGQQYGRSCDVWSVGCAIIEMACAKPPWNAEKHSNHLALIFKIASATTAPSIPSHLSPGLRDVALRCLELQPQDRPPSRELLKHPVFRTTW
Chain of MNK1 (Q9BUB5 whole entry): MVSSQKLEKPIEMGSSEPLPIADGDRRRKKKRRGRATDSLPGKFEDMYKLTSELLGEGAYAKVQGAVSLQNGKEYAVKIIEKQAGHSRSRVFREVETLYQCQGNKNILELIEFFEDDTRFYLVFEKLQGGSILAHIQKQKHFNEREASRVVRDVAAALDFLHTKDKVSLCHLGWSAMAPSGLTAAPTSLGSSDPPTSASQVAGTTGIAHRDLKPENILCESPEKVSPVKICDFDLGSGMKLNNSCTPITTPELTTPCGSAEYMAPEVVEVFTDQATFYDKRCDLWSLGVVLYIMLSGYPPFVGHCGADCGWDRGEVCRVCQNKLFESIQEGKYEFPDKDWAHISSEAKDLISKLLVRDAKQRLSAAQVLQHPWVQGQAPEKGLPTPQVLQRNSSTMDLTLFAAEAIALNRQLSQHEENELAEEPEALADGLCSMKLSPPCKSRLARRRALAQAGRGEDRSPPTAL
Chain of IKKe (Q14164 whole entry): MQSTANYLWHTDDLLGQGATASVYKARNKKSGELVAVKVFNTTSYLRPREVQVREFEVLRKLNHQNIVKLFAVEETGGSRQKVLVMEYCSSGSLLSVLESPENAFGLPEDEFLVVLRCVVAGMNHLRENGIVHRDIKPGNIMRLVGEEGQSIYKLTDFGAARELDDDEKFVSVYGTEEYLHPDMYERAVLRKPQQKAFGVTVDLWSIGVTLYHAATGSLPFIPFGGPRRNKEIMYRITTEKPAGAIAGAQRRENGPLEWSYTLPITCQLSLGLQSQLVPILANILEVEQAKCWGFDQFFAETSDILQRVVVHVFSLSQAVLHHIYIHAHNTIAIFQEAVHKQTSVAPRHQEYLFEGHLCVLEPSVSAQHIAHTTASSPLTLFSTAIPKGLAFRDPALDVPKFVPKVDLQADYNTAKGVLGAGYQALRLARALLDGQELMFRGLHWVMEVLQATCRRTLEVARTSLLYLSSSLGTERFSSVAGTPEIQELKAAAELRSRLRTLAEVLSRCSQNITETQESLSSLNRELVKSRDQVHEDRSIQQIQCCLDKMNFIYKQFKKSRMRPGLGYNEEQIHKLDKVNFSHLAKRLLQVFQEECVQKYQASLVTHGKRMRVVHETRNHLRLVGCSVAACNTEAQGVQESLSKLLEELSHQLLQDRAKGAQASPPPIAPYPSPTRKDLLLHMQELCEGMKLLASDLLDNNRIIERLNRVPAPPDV
Chain of CAMKKb (Q96RR4 whole entry): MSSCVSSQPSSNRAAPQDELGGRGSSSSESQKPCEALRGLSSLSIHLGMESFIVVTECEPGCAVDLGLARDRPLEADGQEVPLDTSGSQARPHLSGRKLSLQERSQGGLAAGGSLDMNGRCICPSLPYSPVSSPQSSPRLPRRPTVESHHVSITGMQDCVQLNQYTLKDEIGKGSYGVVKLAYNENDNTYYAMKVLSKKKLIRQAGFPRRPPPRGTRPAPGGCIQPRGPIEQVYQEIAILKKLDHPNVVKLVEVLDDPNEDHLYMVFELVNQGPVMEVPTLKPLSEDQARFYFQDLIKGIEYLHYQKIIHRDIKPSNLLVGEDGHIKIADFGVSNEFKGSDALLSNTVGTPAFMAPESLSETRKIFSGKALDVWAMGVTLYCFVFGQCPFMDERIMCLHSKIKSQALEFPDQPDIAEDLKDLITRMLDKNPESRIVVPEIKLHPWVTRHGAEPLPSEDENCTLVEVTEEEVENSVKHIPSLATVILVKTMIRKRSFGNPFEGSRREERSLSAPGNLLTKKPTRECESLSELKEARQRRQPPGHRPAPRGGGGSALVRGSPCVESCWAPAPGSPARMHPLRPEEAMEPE
Chain of p38b MAPK (Q15759 whole entry): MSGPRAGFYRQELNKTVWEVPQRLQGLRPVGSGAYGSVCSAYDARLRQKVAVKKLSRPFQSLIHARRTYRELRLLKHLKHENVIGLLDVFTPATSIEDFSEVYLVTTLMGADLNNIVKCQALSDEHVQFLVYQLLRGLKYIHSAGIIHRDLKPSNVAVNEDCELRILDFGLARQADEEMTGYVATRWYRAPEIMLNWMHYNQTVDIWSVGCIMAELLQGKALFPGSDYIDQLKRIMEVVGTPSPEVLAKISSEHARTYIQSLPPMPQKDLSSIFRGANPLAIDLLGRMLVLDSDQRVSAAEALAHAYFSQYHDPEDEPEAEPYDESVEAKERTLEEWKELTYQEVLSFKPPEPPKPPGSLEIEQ

SMILES	TBK1 % activity remaining (TBK1) [%]	ERK1 % activity remaining (ERK1) [%]	HIPK2 % activity remaining (HIPK2) [%]	BRSK2 % activity remaining (BRSK2) [%]	CAMKKb % activity remaining (CAMKKb) [%]	CDK2-Cyclin A % activity remaining (CDK2-Cyclin A) [%]	CAMK1 % activity remaining (CAMK1) [%]	BTK % activity remaining (BTK) [%]	CK1 % activity remaining (CK1) [%]	MAPKAP-K2 % activity remaining (MAPKAP-K2) [%]	ERK8 inhibition (ERK8)	ERK8 % activity remaining (ERK8) [%]	CHK2 % activity remaining (CHK2) [%]	PKCz % activity remaining (PKCz) [%]	GSK3b % activity remaining (GSK3b) [%]	JNK3 % activity remaining (JNK3) [%]	HER4 % activity remaining (HER4) [%]	MNK1 % activity remaining (MNK1) [%]	PRK2 % activity remaining (PRK2) [%]	MKK1 % activity remaining (MKK1) [%]	further results
Cc1nn(C)cc1-c1nc2c(-c3cnn(Cc4ccccc4)c3)c(Cl)cnc2[nH]1 [Compound 7a]	24	28	6	33	19	1	87	46	63	84	greater than 80%	6	26	103	2	18	89	55	42	28	GSK3β inhibition (GSK3b; 1 μM): greater than 80%; NEK6 % activity remaining (NEK6): 64%; IKKe % activity remaining (IKKe): 53%; MST4 % activity remaining (MST4): 64%; MEKK1 % activity remaining (MEKK1): 74%; SYK % activity remaining (SYK): 37%; PIM3 % activity remaining (PIM3): 45%; p38b MAPK % activity remaining (p38b MAPK): 91%; PIM2 % activity remaining (PIM2): 86%; SGK1 % activity remaining (SGK1): 56%; Src % activity remaining (Src): 9%; JNK1 % activity remaining (JNK1): 13%
Cc1cc(Cn2cc(-c3c(Cl)cnc4[nH]c(-c5cn(C)nc5C)nc34)cn2)no1 [Compound 14d]	7	52	11	72	42	1	77	33	78	100	≥ 80%	1	32	96	47	62	73	64	43	40	NEK6 % activity remaining (NEK6): 116%; IKKe % activity remaining (IKKe): 3%; MST4 % activity remaining (MST4): 56%; MEKK1 % activity remaining (MEKK1): 66%; SYK % activity remaining (SYK): 49%; PIM3 % activity remaining (PIM3): 55%; p38b MAPK % activity remaining (p38b MAPK): 91%; PIM2 % activity remaining (PIM2): 91%; SGK1 % activity remaining (SGK1): 65%; Src % activity remaining (Src): 8%; JNK1 % activity remaining (JNK1): 45%
